Format in all cases: cell-based
One experiment deals with BaF3_DTC. The experiment in a line: Cell growth inhibition assay (CellTiter-Glo), BaF3_DTC. The conditions noted are these: 72 h; Table 6; BaF3_DTC cells, three days, CellTiter-Glo; read-out: BaF3_DTC GI50.
For experiment [1], the system named is BaF3_DTC (EGFR_Exon19del/T790M/C797S). The experiment in a line: EGFR degradation assay (western blot), BaF3_DTC cells. To be noted: BaF3_DTC cells (EGFR_Exon19del/T790M/C797S), compounds 24 h, western blot; read-out: BaF3_DTC DC50. The method, boiled down:
(§1)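 Cells seeded overnight, then exposed to compounds for 24 h; lysates run on western blot, EGFR probed with tubulin loading control and fluorescent secondary detection. DC50 = concentration giving 50% EGFR degradation.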
In general terms: A western blot detects proteins with antibodies after separation by electrophoresis.

The subject of another experiment is A431. Briefly: Cell growth inhibition assay (CellTiter-Glo), A431. The conditions noted are these: Homo sapiens, A-431, 72 h, Table 6; A431 cells, three days, CellTiter-Glo; read-out: A431 GI50. In outline:
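This growth inhibition assay reports GI50, the compound concentration producing 50% inhibition of cell growth relative to DMSO. Seeded cells (90 μL medium per well, 96-well Corning 3610 plates, overnight at 37° C.) received 10 μL of compound diluted 1:100 from a 1,000× DMSO stock. Luminescence was measured on Envision (PerkinElmer) and analyzed in GraphPad Prism 9.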
For orientation: In ATP-based viability assays light output follows the ATP content of the culture.

The test system of the next experiment is BaF3_ASV. Briefly: Cell growth inhibition assay (CellTiter-Glo), BaF3_ASV. The conditions noted are these: 72 h.
Experiment [2] has as its target T1, BaF3_ASV (EGFR_A776inASV) (Homo sapiens, UniProt P00533, DUP767-769).
T1 construct: expressed in transfected cells; host or cells: Ba/F3 (engineered)
The experiment in a line: EGFR degradation assay (western blot), BaF3_ASV cells. The conditions noted are these: BaF3_ASV cells, compounds 24 h, western blot; read-out: BaF3_ASV DC50. In outline:
as §1

The target of the next experiment is T2, A431 (EGFR_WT) (Homo sapiens, UniProt P00533).
T2 construct: endogenous in cells; host or cells: A431, NCI-H2073, NCI-H292
Briefly: EGFR degradation assay (western blot), A431 cells. To be noted: compounds 24 h, western blot, read-out: A431 DC50. The protocol:
A431 (EGFR_WT), NCl-H2073 (EGFR_WT), NCl-H292 (EGFR_WT), BaF3_YVAM (Her2_A775insYVAM), BaF3_SVD (EGFR_D770insSVD), BaF3_ASV (EGFR_A776inASV), or BaF3_DTC (EGFR_Exon19del/T790M/C797S) cells were seeded in a 24-well plate at a density of 4×10^5 cells per well for EGFR WT cells and 8× cells per well for EGFR or Her2 mutant cells, and the plates were incubated overnight. The cells were treated with the desired compounds for 24 h. The culture medium was removed, and 100 μL of RIPA buffer (Beyotime, P0013B) containing 1% Protease Inhibitor Cocktail (Bimake, B14001), 1% Phosphatase Inhibitor Cocktail 2 (Sigma, P5726), and 1% Phosphatase Inhibitor Cocktail 3 (Sigma, P0044) were added to lyse the cells. Then, the cell lysates were transferred to 1.5 mL microcentrifuge tubes and centrifuged at 12,000 rpm and 4° C. for 30 min. The supernatants were transferred into new tubes, and the protein concentration was determined using the BCA protein quantification method. All samples were diluted to the same concentration using RIPA buffer, loading buffer was added, samples were denatured, and 15 μg of protein per lane was loaded onto a SurePAGE 4-20% Bis-Tris gel. Samples were separated via electrophoresis in MOPS running buffer at 180 V for 100 min. Then, proteins were transferred onto PVDF membranes using the MiniBlot™ Electrophoretic Transfer Cell Device (Beyotime, E6050). The membrane was blocked using block buffer (LI-COR 927-60001) to prevent non-specific binding. The membrane was incubated with primary antibodies (1:500 dilution, EGFR-CST4405, 1:2000 dilution, Tubulin-ABclonal #AC021) at 4° C. overnight. The membrane was washed three times with 1× TBST buffer for 15 min each. The membrane was incubated with secondary antibodies IRDye 680RD Goat anti-Rabbit IgG Secondary Antibody (1:2000 dilution, LI-COR 926-68071) and IRDye 800CW Goat anti-Mouse IgG Secondary Antibody (1:2000 dilution, LI-COR 926-32210). Finally, the membrane was washed again with 1× TBST buffer 3 times. Fluorescence was detected using the Odyssey CLx Imaging System, and the data were analyzed with Empiria Studio Software and GraphPad Prism 9. Table 4 and Table 5 list the degradation results, where the degradation potency is represented by DC50, the concentration of compounds to cause the degradation of 50% of the corresponding proteins. FIGS. 45-49 show western blots illustrating the EGFR degradative activity of exemplary Compound of the present disclosure and a comparator Compound A in different cell lines 24 h after administration. The Compound referred herein as Compound A is disclosed in WO 2022/171123 A1 (see, compound 133, page 46; published Aug. 18, 2022). WO 2022/171123 A1 discloses phosphine oxide derived molecules with EGFR degradation activity.

[3] abbreviates: Table 6, BaF3_ASV cells, three days, CellTiter-Glo, read-out: BaF3_ASV GI50.

Each structure is given as a SMILES string. Like-named read-outs stand apart in the source and are kept apart here. Bounds are passed on as bounds.

T1 sequence (P00533 with tags, fused parts or gaps DUP767-769): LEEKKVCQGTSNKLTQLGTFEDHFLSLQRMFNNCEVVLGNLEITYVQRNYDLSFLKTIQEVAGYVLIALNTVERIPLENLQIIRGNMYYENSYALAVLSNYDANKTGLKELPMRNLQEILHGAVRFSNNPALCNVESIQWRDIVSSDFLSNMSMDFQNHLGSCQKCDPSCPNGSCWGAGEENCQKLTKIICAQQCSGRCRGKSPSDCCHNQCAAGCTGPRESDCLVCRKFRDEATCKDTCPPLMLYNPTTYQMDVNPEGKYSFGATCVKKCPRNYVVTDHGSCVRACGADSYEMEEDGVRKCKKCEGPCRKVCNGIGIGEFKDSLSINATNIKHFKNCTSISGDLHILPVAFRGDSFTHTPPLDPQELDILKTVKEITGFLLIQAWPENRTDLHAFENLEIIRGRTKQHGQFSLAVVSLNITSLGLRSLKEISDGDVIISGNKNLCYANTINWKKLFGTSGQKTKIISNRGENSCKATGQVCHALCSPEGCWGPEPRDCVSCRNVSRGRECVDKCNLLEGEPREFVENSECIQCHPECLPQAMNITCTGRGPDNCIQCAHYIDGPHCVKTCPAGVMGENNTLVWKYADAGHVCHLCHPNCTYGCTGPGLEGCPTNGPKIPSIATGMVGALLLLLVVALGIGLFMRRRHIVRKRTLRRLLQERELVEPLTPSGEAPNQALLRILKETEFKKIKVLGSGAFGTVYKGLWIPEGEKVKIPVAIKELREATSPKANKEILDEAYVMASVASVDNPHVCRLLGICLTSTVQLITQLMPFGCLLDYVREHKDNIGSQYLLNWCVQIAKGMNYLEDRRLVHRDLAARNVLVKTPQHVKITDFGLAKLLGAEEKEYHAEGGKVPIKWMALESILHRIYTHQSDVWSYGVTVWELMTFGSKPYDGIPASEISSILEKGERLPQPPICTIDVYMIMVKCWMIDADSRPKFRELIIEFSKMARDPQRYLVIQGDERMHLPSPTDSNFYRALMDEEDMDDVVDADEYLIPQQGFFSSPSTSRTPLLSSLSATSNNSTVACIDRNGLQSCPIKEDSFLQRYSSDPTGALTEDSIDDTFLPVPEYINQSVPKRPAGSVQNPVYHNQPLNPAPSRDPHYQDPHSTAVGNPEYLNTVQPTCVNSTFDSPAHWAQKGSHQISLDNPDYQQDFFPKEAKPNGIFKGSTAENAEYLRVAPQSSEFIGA
T2 sequence (P00533 25-1210): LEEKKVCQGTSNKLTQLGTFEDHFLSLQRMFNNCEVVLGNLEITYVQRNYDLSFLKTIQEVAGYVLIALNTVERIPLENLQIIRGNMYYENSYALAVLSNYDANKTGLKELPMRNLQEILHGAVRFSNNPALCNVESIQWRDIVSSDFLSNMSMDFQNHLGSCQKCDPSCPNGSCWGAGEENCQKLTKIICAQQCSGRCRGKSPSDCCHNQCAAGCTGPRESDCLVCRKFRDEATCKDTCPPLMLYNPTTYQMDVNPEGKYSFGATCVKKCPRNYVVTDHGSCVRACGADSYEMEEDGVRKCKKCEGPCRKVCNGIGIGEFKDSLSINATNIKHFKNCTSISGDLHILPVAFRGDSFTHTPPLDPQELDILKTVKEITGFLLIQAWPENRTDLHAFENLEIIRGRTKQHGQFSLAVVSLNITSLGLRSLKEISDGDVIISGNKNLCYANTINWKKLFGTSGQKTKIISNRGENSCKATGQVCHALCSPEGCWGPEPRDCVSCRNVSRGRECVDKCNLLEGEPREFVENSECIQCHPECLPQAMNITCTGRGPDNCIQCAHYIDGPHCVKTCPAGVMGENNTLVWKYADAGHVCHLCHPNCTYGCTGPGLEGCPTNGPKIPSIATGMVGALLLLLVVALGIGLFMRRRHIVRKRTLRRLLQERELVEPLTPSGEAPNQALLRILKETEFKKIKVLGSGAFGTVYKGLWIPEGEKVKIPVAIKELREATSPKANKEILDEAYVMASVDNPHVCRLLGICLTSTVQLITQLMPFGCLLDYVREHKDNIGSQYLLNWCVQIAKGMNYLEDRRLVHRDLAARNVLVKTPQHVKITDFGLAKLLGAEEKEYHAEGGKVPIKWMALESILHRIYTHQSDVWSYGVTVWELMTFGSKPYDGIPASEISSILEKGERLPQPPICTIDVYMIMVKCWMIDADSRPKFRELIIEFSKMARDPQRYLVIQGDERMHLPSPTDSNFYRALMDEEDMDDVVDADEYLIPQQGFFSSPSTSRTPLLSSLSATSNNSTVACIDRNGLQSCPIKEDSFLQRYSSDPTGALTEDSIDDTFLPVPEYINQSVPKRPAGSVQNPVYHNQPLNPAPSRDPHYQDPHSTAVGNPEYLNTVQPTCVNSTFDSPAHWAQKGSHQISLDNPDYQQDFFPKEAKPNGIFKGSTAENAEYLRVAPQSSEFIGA

A word on the GI50: it is the concentration that inhibits growth by half. The term DC50 denotes the midpoint of the concentration-degradation curve. `CCc1cc(Nc2ncc(Br)c(Nc3ccc4nccnc4c3NS(C)(=O)=O)n2)c(OC)cc1N1CCC(N2CCN(C(=O)C3CCN(c4ccc5c(c4)CN(C4CCC(=O)NC4=O)C5=O)CC3)CC2)CC1` (stereo not drawn) [Compound 10, N-(6-((5-bromo-2-((4-(4-(4-(1-(2-(2,6-dioxopiperidin-3-yl)-1-oxoisoindolin-5-yl)piperidine-4-carbonyl)piperazin-1-yl)piperidin-1-yl)-5-ethyl-2-methoxyphenyl)amino)pyrimidin-4-yl)amino)quinoxalin-5-yl)methanesulfonamide]: the 50% growth inhibitory concentration (GI50) was 9.6 nM in the experiment on BaF3_DTC, over 1000 nM in the experiment on A431 and 72.7 nM in the experiment with BaF3_ASV (setting [3]). Moreover, the DC50 is 1.21 nM in experiment [1], 20 nM in experiment [2] and over 1000 nM on A431 (EGFR_WT).
As for `CCc1cc(Nc2ncc(Br)c(Nc3ccc4nccnc4c3NS(C)(=O)=O)n2)c(OC)cc1N1CCC(N2CCN(c3ccc4c(c3)CN([C@H]3CCC(=O)NC3=O)C4=O)CC2)CC1` [Compound 38, (S)-N-(6-((5-bromo-2-((4-(4-(4-(2-(2,6-dioxopiperidin-3-yl)-1-oxoisoindolin-5-yl)piperazin-1-yl)piperidin-1-yl)-5-ethyl-2-methoxyphenyl)amino)pyrimidin-4-yl)amino)quinoxalin-5~yl)methanesulfonamide], the values for the GI50 with BaF3_DTC, in the experiment on A431 and with BaF3_ASV (setting [3]) were 9.14 nM, over 1000 nM and 90.3 nM, respectively. Also, the DC50 in experiment [1] is 4.2 nM; in experiment [2], 35.1 nM; at A431 (EGFR_WT), over 1000 nM.
For `CCc1cc(Nc2ncc(Br)c(Nc3ccc4nccnc4c3NS(C)(=O)=O)n2)c(OC)cc1N1CCC(N2CCC(C(=O)N3CCN(c4ccc5c(c4)CN([C@H]4CCC(=O)NC4=O)C5=O)CC3)CC2)CC1` [Compound 41, (S)-N-(6-((5-bromo-2-((4-(4-(4-(2-(2,6-dioxopiperidin-3-yl)-1-oxoisoindolin-5-yl)piperazine-1-carbonyl)-[1,4′-bipiperidin]-1′-yl)-5-ethyl-2-methoxyphenyl)amino)pyrimidin-4-yl)amino)quinoxalin-5-yl)methanesulfonamide], the figures for the GI50 with BaF3_DTC, in the experiment on A431 and in the experiment with BaF3_ASV (setting [3]) were 123 nM, over 1000 nM and 52.7 nM, respectively. Also, the 50% degradation concentration (DC50) is over 100 nM in experiment [1], 335 nM in experiment [2] and over 1000 nM on A431 (EGFR_WT).
Consider `CCc1cc(Nc2ncc(Br)c(Nc3ccc4nccnc4c3NS(C)(=O)=O)n2)c(OC)cc1N1CCC(N2CCN(C3CC4(CCN(c5ccc6c(c5)CN(C5CCC(=O)NC5=O)C6=O)CC4)C3)CC2)CC1` (stereo not drawn) [Compound 48, N-(6-((5-bromo-2-((4-(4-(4-(7-(2-(2,6-dioxopiperidin-3-yl)-1-oxoisoindolin-5-yl)-7-azaspiro[3.5]nonan-2-yl)piperazin-1-yl)piperidin-1-yl)-5-ethyl-2-methoxyphenyl)amino)pyrimidin-4-yl)amino)quinoxalin-5-yl)methanesulfonamide], for which the 50% growth inhibitory concentration (GI50) in the experiment with BaF3_DTC is 6.04 nM; in the experiment with A431, over 1000 nM; with BaF3_ASV (setting [3]) it was 36.8 nM. Also, the DC50 in experiment [1] is 4.26 nM; in experiment [2], 23.7 nM; on A431 (EGFR_WT) it was over 1000 nM.
Take `CCc1cc(Nc2ncc(Br)c(Nc3ccc4nccnc4c3NS(C)(=O)=O)n2)c(OC)cc1N1CCC(N2CCN(C3CCN(c4ccc5c(c4)CN(C4CCC(=O)NC4=O)C5=O)CC3)CC2)CC1` (stereo not drawn) [Compound 49, N-(6-((5-bromo-2-((4-(4-(4-(1-(2-(2,6-dioxopiperidin-3-yl)-1-oxoisoindolin-5-yl)piperidin-4-yl)piperazin-1-yl)piperidin-1-yl)-5-ethyl-2-methoxyphenyl)amino)pyrimidin-4-yl)amino)quinoxalin-5-yl)methanesulfonamide]: the GI50 was 4.43 nM in the experiment with BaF3_DTC, at least 1000 nM in the experiment on A431 and 32.7 nM with BaF3_ASV (setting [3]). Further, the DC50 in experiment [1] is 2.36 nM; in experiment [2], 19.7 nM; on A431 (EGFR_WT), over 1000 nM.
For `CCc1cc(Nc2ncc(Br)c(Nc3ccc4nccnc4c3NS(C)(=O)=O)n2)c(OC)cc1N1CCC(N2CC3(CCN(c4ccc5c(c4)CN(C4CCC(=O)NC4=O)C5=O)CC3)C2)CC1` (stereo not drawn) [Compound 57, N-(6-((5-bromo-2-((4-(4-(7-(2-(2,6-dioxopiperidin-3-yl)-1~oxoisoindolin-5-yl)-2,7-diazaspiro[3.5]nonan-2-yl)piperidin-1-yl)-5-ethyl-2-methoxyphenyl)amino)pyrimidin-4-yl)amino)quinoxalin-5-yl)methanesulfonamide], the GI50 in the experiment on BaF3_DTC was 5.89 nM; in the experiment with A431, 360 nM; in the experiment with BaF3_ASV (setting [3]) it was 51.5 nM. The DC50 in experiment [1] is 4.73 nM; in experiment [2], 44.5 nM; at A431 (EGFR_WT) it was over 1000 nM.
Consider `CCc1cc(Nc2ncc(Br)c(Nc3ccc4nccnc4c3NS(C)(=O)=O)n2)c(OC)cc1N1CCC(N2CCN(CCc3cc(F)c(C4CCC(=O)NC4=O)c(F)c3)CC2)CC1` (stereo not drawn) [Compound 71, N-(6-((5-bromo-2-((4-(4-(4-(4-(2,6-dioxopiperidin-3-yl)-3,5~difluorophenethyl)piperazin-1-yl)piperidin-1-yl)-5-ethyl-2-methoxyphenyl)amino)pyrimidin-4-yl)amino)quinoxalin-5-yl)methanesulfonamide], for which the GI50 is 5.41 nM in the experiment on BaF3_DTC, over 3000 nM in the experiment on A431 and 131 nM with BaF3_ASV (setting [3]). Also, the DC50 in experiment [1] was 3.51 nM; in experiment [2], 55.1 nM; on A431 (EGFR_WT), over 1000 nM.
`CCc1cc(Nc2ncc(Br)c(Nc3ccc4nccnc4c3NS(C)(=O)=O)n2)c(OC)cc1N1CCC(N2CCN(CCc3cccc4c3oc(=O)n4C3CCC(=O)NC3=O)CC2)CC1` (stereo not drawn) [Compound 77, N-(6-((5-bromo-2-((4-(4-(4-(2-(3-(2,6-dioxopiperidin-3-yl)-2-oxo-2,3-dihydrobenzo[d]oxazol-7-yl)ethyl)piperazin-1-yl)piperidin-1-yl)-5-ethyl-2-methoxyphenyl)amino)pyrimidin-4-yl)amino)quinoxalin-5-yl)methanesulfonamide]: the GI50 in the experiment on BaF3_DTC is 5.39 nM; in the experiment on A431, over 3000 nM; in the experiment with BaF3_ASV (read-out: BaF3_ASV GI50 (nM)) it was 131 nM. Moreover, the DC50 is 2.7 nM in experiment [1], over 1000 nM in experiment [2] and over 1000 nM on A431 (EGFR_WT).
Take `CCc1cc(Nc2ncc(Br)c(Nc3ccc4nccnc4c3NS(C)(=O)=O)n2)c(OC)cc1N1CCC(N2CC[C@@H](CN3CCN(c4ccc5c(c4)CN([C@H]4CCC(=O)NC4=O)C5=O)CC3)C2)CC1` [Compound 92]: the GI50 in the experiment with BaF3_DTC was 14.6 nM; with A431 it was over 1000 nM; in the experiment on BaF3_ASV (setting [3]), 92.9 nM. The DC50 was 3.97 nM in experiment [1], 24.5 nM in experiment [2] and over 1000 nM at A431 (EGFR_WT).

(Values after patent US20250002473A1, “QUINOXALINE DERIVED SULFONAMIDES WITH EGFR DEGRADATION ACTIVITIES AND THEIR USES THEREOF” (Accutar Biotechnology Inc., priority 2023, published 2025).)
